Data on three molecules can be found in patent US10986834B2, “Peptide-containing composition and stabilizer, stabilizing method, and storage method for peptide” (KANEKA CORPORATION, priority 2016, dated 2021).

For the data set the following is noted: 1% by mass in distilled water at 25° C. On the procedure: Potassium sulfate, dipotassium hydrogen phosphate, and potassium bicarbonate components were each dissolved in distilled water at 25° C. to be a concentration of 1% by mass and stirred sufficiently.

In turn, `O=P([O-])([O-])O.[K+].[K+]` [Dipotassium hydrogen phosphate] displayed a pH of 9.0.

For `O=C([O-])O.[K+]` [Potassium bicarbonate], the pH came out at 8.3.

For `O=S(=O)([O-])[O-].[K+].[K+]` [Potassium sulfate], the pH is 3.3.
